{"source": "patent US10857185B2", "about": "“Compositions and methods for reprogramming non-neuronal cells into neuron-like cells” (Beihao Stem Cell and Regenerative Medicine Research …, priority 2015, dated 2020)", "key": {"fibroblasts": {"system": "fibroblasts", "assay": "Gene expression (RT-qPCR) after removing each small molecule from the cocktail", "format": "cell-based, mouse", "method": "Total RNA was extracted using the Qiagen RNeasy Plus mini kit and was reverse transcribed into cDNA with TransScript One-step gDNA Removal and cDNA Synthesis SuperMix (TransGen Biotech). Real-time PCR was performed using a 7300 Real-Time PCR system (Applied Biosystems) with Power SYBR Green PCR Master Mix (2×).\nGene expression was analyzed using the ΔΔCt method. All the results were normalized to β-actin expression, and the values of uninduced fibroblasts were set to 1. Two replicates were used to determine the error bars.\nNext, the roles of the small molecules in regulating these endogenous cell-fate-determining factors were determined."}, "mouse fibroblasts": {"system": "mouse fibroblasts", "assay": "Transgene-free chemical induction of mouse fibroblasts into neuron-like cells (immunostaining counts)", "format": "cell-based", "method": "Secondary screening was performed to identify additional small molecules that facilitate neuronal reprogramming and maturation (shown schematically in FIG. 2A). In this screening, the effect of the additional small molecules was evaluated by observing neurite outgrowth. Desirable additional small molecules could induce the neurons with an improved neurite outgrowth as signs of enhanced reprogramming and maturation, ideally with highly complex morphologies. Improved neurite morphologies were evaluated in terms of enhanced neurite branches and neurite length. Further, characterization (e.g. TUJ1 immunostaining) was performed to confirm the observation. Fibroblasts were seeded into 12-well plates and each additional small molecule was added well by well into the culture medium containing the basic small-molecule cocktail (SM-cocktail+1 Screening), while SM-cocktail+DMSO was used as a negative control. […] TUJ1-positive cells with circular cell bodies and neurite outgrowth that is at least three-fold longer than the cell body were quantified. […] Cells were washed with PBS twice and then fixed with 4% paraformaldehyde for 20 min at room temperature. Afterward, the cells were washed with PBS twice and then blocked and permeabilized with 0.25% PBST (PBS plus 0.25% Triton X-100) and 3% donkey serum (DS) for 1 hour at 37° C. A PAP pen was used to outline the fields for staining. Diluted primary antibodies were added to the outlined fields, and the samples were incubated at 4° C. overnight. Next, the cells were washed three times with PBS and incubated in PBS plus 3% DS with diluted secondary antibodies for 1 hour at room temperature. The nuclei of the cells were stained with DAPI (Roche Molecular Biochemicals) if needed. […] The following secondary antibodies were used in this study: FITC and TRITC-conjugated secondary antibodies (Jackson ImmunoResearch) and Alexa Fluor 647-conjugated secondary antibodies (Life Technologies)."}, "CiNs": {"system": "CiNs", "assay": "Whole-cell patch-clamp recordings of CiNs", "format": "cell-based, mouse", "settings": "CiNs after re-plating; data not shown", "method": "Primary cultures of neurons were prepared from postnatal day 1 wild-type C57 mice. Mice were decapitated, and their brains were removed in pre-cooled physiological saline. The hippocampus was dissected in pre-cooled HBSS (9.5 g/L Hanks' balanced salts, 4.2 mM NaHCO3, 10 mM HEPES, 12 mM MgSO4, 7 g/L glucose, 0.3 g/L bull serum albumin, and 0.5% penicillin/streptomycin, with the pH adjusted to 7.4 with NaOH). Tissues were digested with 5 ml 0.2% trypsin (Gibco, dissolved in digestion solution) for 2-3 min, and the digestion reaction was stopped with 1 mg/ml trypsin inhibitor (Sigma, dissolved in HBSS). The digestion solution contained (in mM) 4.2 NaHCO3, 25 HEPES, 137 NaCl, 5 KCl, and 7 Na2HPO4, and the pH was adjusted to 7.4 with NaOH. […]\nFor whole-cell patch-clamp recordings, the ACSF (artificial cerebrospinal fluid) extracellular solution contained (in mM) 141 NaCl, 2.5 KCl, 1.3 MgCl2, 2.4 CaCl2, 1.25 NaH2PO4 10 glucose and 10 HEPES (pH adjusted to 7.4 with NaOH), and the internal pipette solution contained (in mM) 140 potassium gluconate, 1 CaCl2, 10 EGTA, 2 MgCl2, 10 HEPES, and 5 Na2ATP (pH adjusted to 7.3 with KOH). […] Tetrodotoxin (TTX; 10 μM) dissolved in extracellular solution was applied with an ALA-VM4 valve manifold (Scientific Instruments), and washout from the iNs was assessed to determine whether the inward fast inactivating current was a sodium current. […]"}, "[1]": {"settings": "I-BET151 added to FICS cocktail (FICS+1 screening)"}}, "note": "Entries after “also recorded” stand apart in the source; their conditions may differ."}
{"smiles": "O=C(NC1CC1)c1cc(-c2cccs2)on1", "note": "[ISX9, N-cyclopropyl-5-(2-thienyl)-3-isoxazolecarboxamide]", "values": [{"measurement": "role in activation of master neural / neuron-specific genes", "setting": "fibroblasts; 48 h", "value": "necessary for activation of multiple neuron-specific genes; also recorded: essential to induce the master neural genes"}]}
{"smiles": "COc1cc2c(cc1-c1c(C)noc1C)ncc1[nH]c(=O)n([C@H](C)c3ccccn3)c12", "note": "[I-BET151, 7-(3,5-dimethylisoxazol-4-yl)-8-methoxy-1-((R)-1-(pyridin-2-yl)ethyl)-1H-imidazo[4,5-c]quinolin-2(3H)-one]", "values": [{"measurement": "role in suppression of the endogenous fibroblast-fate-determining program", "setting": "fibroblasts", "value": "core small molecule to suppress the endogenous fibroblast-fate-determining program"}, {"measurement": "TUJ1-positive cells yield", "setting": "mouse fibroblasts; [1]", "value": 90, "unit": "%"}, {"measurement": "reprogramming rate and neurite outgrowth of the induced neurons", "setting": "mouse fibroblasts; [1]", "value": "dramatically enhanced"}, {"measurement": "toxicity to cells being induced", "setting": "mouse fibroblasts; enhancing reprogramming with I-BET151", "value": "some toxicity"}]}
{"smiles": "NC(CCCP(=O)(O)O)C(=O)O", "note": "(stereo not shown) [AP5, 2-amino-5-phosphonovaleric acid]", "values": [{"measurement": "effect of receptor antagonists on EPSCs of CiNs", "setting": "CiNs", "value": "blocked"}]}
{"smiles": "NC(=O)c1ccc(-c2nc(-c3ccc4c(c3)OCO4)c(-c3ccccn3)[nH]2)cc1", "note": "[SB431542, 4-[4-(1,3-benzodioxol-5-yl)-5-(2-pyridinyl)-1H-imidazol-2-yl]benzamide]", "values": [{"measurement": "survival and neurite outgrowth of the induced neurons", "setting": "mouse fibroblasts; in FICSB cocktail", "value": "enhanced"}, {"measurement": "need of the chemical for generating neurons", "setting": "mouse fibroblasts; withdrawing individual chemical from FICSB cocktail", "value": "dispensable for generating neurons"}]}
{"smiles": "N#Cc1cc2c(cc1[N+](=O)[O-])=NC(=O)C(=O)N=2", "note": "[CNQX, 6-cyano-7-nitroquinoxaline-2,3-dione]", "values": [{"measurement": "effect of receptor antagonists on EPSCs of CiNs", "setting": "CiNs", "value": "blocked"}]}
{"smiles": "C[C@@H](N)[C@H]1CC[C@H](C(=O)Nc2ccncc2)CC1.Cl.Cl", "note": "[Y2632, (+)-(R)-trans-4-(1-aminoethyl)-N-(4-pyridyl)cyclohexanecarboxamide dihydrochloride]", "values": [{"measurement": "survival rate and reprogramming", "setting": "mouse fibroblasts; treatment from Day 0 to about day 4 together with I-BET151-containing cocktail", "value": "enhanced the survival rate and reprogramming"}]}
